Measured values taken from the supplement of paper PMC10307832.

Assays:
Assay in all cases: relative viability (nuclei count vs DMSO), 5 days (fraction); higher = more cells survive
CX-5461 + Crizotinib = compound: Cc1cnc(CNC(=O)c2c(=O)c3ccc(N4CCCN(C)CC4)nc3n3c2sc2ccccc23)cn1 [CX-5461] + C[C@@H](Oc1cc(-c2cnn(C3CCNCC3)c2)cnc1N)c1c(Cl)ccc(F)c1Cl [Crizotinib] (partner 1 µM)
In short: (§1)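 Values are medians from duplicate plates. Each reflects relative viability, defined as the nuclei count of treated wells over that of vehicle wells. Lung cancer cell lines in 1536-well plates were pin-tool dosed one day after seeding with one drug alone or with a fixed anchor-drug dose plus five library-drug doses (not always all listed) in √10 steps, then fixed, stained and imaged at 4× after 5 days.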

CX-5461 + Bortezomib = compound: Cc1cnc(CNC(=O)c2c(=O)c3ccc(N4CCCN(C)CC4)nc3n3c2sc2ccccc23)cn1 [CX-5461] + CC(C)C[C@H](NC(=O)[C@H](Cc1ccccc1)NC(=O)c1cnccn1)B(O)O [Bortezomib] (partner 0.002 µM)
In short: as §1

IMD-0354 + AZD7762 = compound: O=C(Nc1cc(C(F)(F)F)cc(C(F)(F)F)c1)c1cc(Cl)ccc1O [IMD-0354] + NC(=O)Nc1cc(-c2cccc(F)c2)sc1C(=O)N[C@H]1CCCNC1 [AZD7762] (partner 0.2 µM)
In short: as §1

IMD-0354 + Bortezomib = compound: O=C(Nc1cc(C(F)(F)F)cc(C(F)(F)F)c1)c1cc(Cl)ccc1O [IMD-0354] + CC(C)C[C@H](NC(=O)[C@H](Cc1ccccc1)NC(=O)c1cnccn1)B(O)O [Bortezomib] (partner 0.002 µM)
In short: as §1

Cell Line | relative viability (CX-5461 + Crizotinib; first compound 0.01 µM) | relative viability (CX-5461 + Crizotinib; first compound 0.03162 µM) | relative viability (CX-5461 + Crizotinib; first compound 0.1 µM) | relative viability (CX-5461 + Crizotinib; first compound 0.3162 µM) | relative viability (CX-5461 + Crizotinib; first compound 1 µM) | relative viability (CX-5461 + Bortezomib; first compound 0.01 µM) | relative viability (CX-5461 + Bortezomib; first compound 0.03162 µM) | relative viability (CX-5461 + Bortezomib; first compound 0.1 µM) | relative viability (CX-5461 + Bortezomib; first compound 0.3162 µM) | relative viability (CX-5461 + Bortezomib; first compound 1 µM) | relative viability (IMD-0354 + AZD7762; first compound 0.04 µM) | relative viability (IMD-0354 + AZD7762; first compound 0.1265 µM) | relative viability (IMD-0354 + AZD7762; first compound 0.4 µM) | relative viability (IMD-0354 + AZD7762; first compound 1.265 µM) | relative viability (IMD-0354 + AZD7762; first compound 4 µM) | relative viability (IMD-0354 + Bortezomib; first compound 0.04 µM) | relative viability (IMD-0354 + Bortezomib; first compound 0.1265 µM) | relative viability (IMD-0354 + Bortezomib; first compound 0.4 µM) | relative viability (IMD-0354 + Bortezomib; first compound 1.265 µM) | relative viability (IMD-0354 + Bortezomib; first compound 4 µM)
NCI-H23 | 0.609 | 0.584 | 0.55 | 0.437 | 0.48 | 0.939 | 0.964 | 0.854 | 1.06 | 0.404 | 0.252 | 0.253 | 0.229 | 0.13 | 0.222 | 1.09 | 0.906 | 0.542 | 0.208 | 0.219
LCLC-97TM1 | 0.436 | 0.422 | 0.286 | – | 0.436 | 0.69 | 0.34 | 0.457 | – | 0.119 | 0.315 | 0.449 | 0.222 | 0.185 | 0.128 | 0.928 | 0.501 | 0.706 | 0.0804 | 0.242
EPLC-272H | 1.04 | 1.01 | 0.941 | – | 0.985 | 0.93 | 0.975 | 0.765 | – | 0.814 | 0.167 | 0.217 | 0.162 | 0.19 | 0.118 | 0.966 | 0.986 | 0.686 | 0.955 | 0.266
NCI-H1915 | 0.937 | 0.934 | 0.892 | 0.888 | 0.902 | 1.03 | 1.06 | 0.989 | 1.02 | 0.891 | 0.666 | 0.694 | 0.58 | 0.507 | 0.149 | 0.833 | 1 | 0.396 | 0.738 | 0.183
NCI-H2405 | 0.827 | 0.949 | 0.843 | 0.549 | 0.821 | 0.998 | 0.976 | 0.987 | 1.13 | 0.953 | 0.964 | 0.829 | 0.514 | 0.29 | 0.414 | 1.04 | 1.04 | 0.732 | 0.498 | 0.302
NCI-H322M | 0.924 | 1.06 | 0.79 | – | 0.877 | 1.2 | 1.35 | 1.26 | – | 1.23 | 0.566 | 0.548 | 0.48 | 0.268 | 0.479 | 1.28 | 1.35 | 1.12 | 1.43 | 0.264
NCI-H838 | 0.973 | 0.87 | 0.843 | 0.347 | 0.641 | 0.902 | 0.85 | 0.979 | 0.29 | 0.646 | 0.981 | 0.9 | 0.68 | 0.714 | 0.688 | 0.858 | 0.744 | 0.425 | 0.333 | 0.254
CAL-12T | 0.564 | 0.588 | – | 0.653 | 0.365 | 0.941 | 0.92 | 0.909 | 1.17 | 0.831 | 0.655 | 0.744 | 0.357 | 0.261 | 0.32 | 1.03 | 0.963 | 0.682 | 0.177 | 0.18
